Reference: patent US20260053716A1, “COMPOSITION FOR DENTIN ADHESION AND COMPOSITION FOR PULP RESTORATION, EACH COMPOSITION CONTAINING CPNE7-DERIVED PEPTIDE” (HYSENSBIO CO., LTD, priority 2022, published 2026)
Ends that are not written are not given here.

Assay: Observation of dentinal tubule permeability by confocal microscopy
Type: in vitro ADME
Conditions: rhodamine-attached KH001 in ABU, applied about 30 seconds to coronal surface of extracted human tooth
From the text: The composition for dentin adhesion prepared according to Example 2-1-1 of the present invention was applied to extracted human teeth to observe dentinal tubule permeability. The extracted human teeth were impacted human third molars from patients aged 18 to 22, provided by the Seoul National University Dental Hospital. The experimental protocol was approved by the Institutional Review Board (IRB; IRB Number: S-D20140007), and prior consent was obtained from all patients.
The crown of the extracted human tooth was transversely cut using a diamond saw to expose the dentinal tubule, and then the exposed human tooth was treated. A composition for dentin adhesion prepared according to Example 2-1-1 containing the KH001 peptide (SEQ ID NO: 96), to which rhodamine was attached as a fluorescent dye, was applied to the coronal surface of the extracted human tooth.
The composition for dentin adhesion was applied without a brushing process or an air-drying process and left for about 30 seconds for photopolymerization, and then confocal images were taken.

Sequence: KYKQKRRSYK [KH001, KYKQKRRSYK]
- dentinal tubule permeability (whether KH001 reached the pulp): flowed well into the pulp cavity along the dentinal tubule
